# Assay results taken from PubChem BioAssay (NCI).
# Values joined by “and” are separate entries in the source; they are usually repeats but may differ in a detail not shown here. Equal entries are not always repeated.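 Five compound concentrations were applied to cells in 96-well plates for 48 hours; endpoints were derived by simple linear interpolation of the resulting dose-response curve. At the GI50, growth is halved. TGI is the concentration that stops growth completely.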
# Tested on: HCT-15 colon
# Assay: growth of human tumour cells (NCI), 48 h
Compound,TGI [µM],GI50 [µM]
CCCCC(=O)OCC(=O)[C@]1(O)Cc2c(O)c3c(c(O)c2[C@@H](OC2CC(NC(=O)C(F)(F)F)C(O)C(C)O2)C1)C(=O)c1c(OC)cccc1C3=O (some centres not stated),6.9,–
O=C(O)CCc1coc2ccc(O)cc12,> 100,–
C[C@]12CC[C@H](O)CC1=CC[C@@H]1C2CC[C@]2(C)C(=O)N(N)C(=O)CC12 (some centres not stated),> 100,–
Clc1cc2nsnc2c(Cl)n1,45.6,–
Cc1cccc2c(=O)cc(-c3ccccc3)[nH]c12,> 100,–
COC(CN1C(=O)c2cccc3cccc(c23)C1=O)OC,> 100,–
Cc1nc2ccccc2c(=O)n1-c1ccccc1I,> 100,–
CC(=O)NNc1nc(C)c(C(=O)NNC(=O)C(=O)Nc2ccc(Cl)cc2)s1,> 100,–
Cc1ccc(C(=O)/C(=C/c2ccc([N+](=O)[O-])cc2)SCc2ccc(Cl)cc2)cc1,2.69,0.565
O=C(N/C(=C\c1ccc(/C=C(\NC(=O)c2ccccc2)c2nc3cc([N+](=O)[O-])ccc3[nH]2)cc1)c1nc2cc([N+](=O)[O-])ccc2[nH]1)c1ccccc1,> 100,–
CC1=C(C(=O)NCc2ccccc2)C(/C=C/c2ccccc2)C(C(=O)NCc2ccccc2)=C(C)N1,> 100,–
CC1(c2ccc(F)cc2)C(C#N)C(=O)NC(=O)C1C#N (configuration not stated),> 100,–
O=C1C2C(C(=O)N1OS(=O)(=O)c1ccccc1)N(Cc1ccccc1)C(=O)N2Cc1ccccc1 (configuration not stated),> 100,–
Cc1cc(C)nc(NS(=O)(=O)c2ccc(NC(=O)c3ccc(Cl)c4c(Nc5ccc(S(=O)(=O)Nc6nc(C)cc(C)n6)cc5)c5ccccc5nc34)cc2)n1,> 100,–
COc1ccc2c3c1C(=O)CCCC3CO2 (configuration not stated),> 100,–
CCCCCN(CCCCC)CCCNc1c2c(nc3ccc(Cl)cc13)CCCC2,11.1,2.58
O=C1/C(=C/c2ccccc2)CN(C(=O)C(Cl)(Cl)Cl)C/C1=C\c1ccccc1,3.58,–
Cn1c2ccccc2c2c(Nc3ccccc3)c3ccccc3nc21,60.5,14.1
O=S1(=O)c2ccccc2NC(c2ccc3ccccc3c2)CC1c1ccccc1F (configuration not stated),> 100,–
Cc1ccc(NC2=C(Cl)C(=O)N(Cc3ccccc3)C2=O)cc1O,> 100,33.5

# Tested on: ACHN renal
# Assay: growth of human tumour cells (NCI), 48 h
Compound,TGI [µM],GI50
CCN(CCO)CC1CCCC2CCCCC21 (configuration not stated),> 100,–
CC[C@@]1(O)C[C@H](OC2CC(N(C)C)C(O)C(C)O2)c2c(O)c3c(c(O)c2[C@H]1OC1CC(N(C)C)C(O)C(C)O1)C(=O)c1cccc(O)c1C3=O (some centres not stated),< 0.01,30 nM and < 10 nM
COC1(OC)CCC2C1C1CCC(OC)(OC)C21 (configuration not stated),> 50,–
NNC(=O)Nc1cccnc1,> 100,–
CC/C=C\CCC/C=C1/C(=O)C=C[C@@H]1C/C=C\CCCC(=O)OC,4.43,2130 nM
COc1ccc(-c2nc3sccn3c2/C(N)=N/C(=N)N)cc1OC,> 100,> 100000 nM
CCCCCCCCCCCOc1ccc(C(=O)C(=O)c2ccc(OCCCCCCCCCCC)c(OCCCCCCCCCCC)c2)cc1OCCCCCCCCCCC,> 100,–
Cn1cnc([N+](=O)[O-])c1Sc1nnc(-c2cccnc2)n1C,36.7,–
CCOC(=O)C1=C(C)NC(=S)NC1c1ccccc1 (configuration not stated),> 100,–
COC1=CC(=O)c2nc(-c3ccncc3)[nH]c2C1=O,> 100,> 100000 nM
O=C(/C=C/c1ccccc1)NC1C=Nc2ccc(Cl)cc2NC1=O (configuration not stated),> 100,–
COC1CCC2C(NS(=O)(=O)c3ccc(C)cc3)CCCC2O1 (configuration not stated) (tested in a mixture with another compound),> 34.5,–
CC(C)C/C(CC(=O)CCC(=O)Nc1ccccc1[N+](=O)[O-])=N\NC(=O)c1cc2ccccc2cc1O,> 100,–
O=C1/C(=C/c2cccc([N+](=O)[O-])c2)COc2ccc(O)cc21,3.21,1750 nM
O=C(O)c1ccccc1[Se][Se]c1ccccc1C(=O)O,> 100,–
CCCCC(=O)OCC(=O)[C@]1(O)Cc2c(O)c3c(c(O)c2[C@@H](OC2CC(NC(=O)C(F)(F)F)C(O)C(C)O2)C1)C(=O)c1c(OC)cccc1C3=O (some centres not stated),3.04,–
O=C(O)CCc1coc2ccc(O)cc12,> 100,–
C[C@]12CC[C@H](O)CC1=CC[C@@H]1C2CC[C@]2(C)C(=O)N(N)C(=O)CC12 (some centres not stated),> 100,–

Compound,TGI [µM],GI50
Clc1cc2nsnc2c(Cl)n1,> 100,–
Cc1cccc2c(=O)cc(-c3ccccc3)[nH]c12,> 100,–
COC(CN1C(=O)c2cccc3cccc(c23)C1=O)OC,> 100,–
Cc1nc2ccccc2c(=O)n1-c1ccccc1I,> 100,–
CC(=O)NNc1nc(C)c(C(=O)NNC(=O)C(=O)Nc2ccc(Cl)cc2)s1,> 100,–
Cc1ccc(C(=O)/C(=C/c2ccc([N+](=O)[O-])cc2)SCc2ccc(Cl)cc2)cc1,3.13,1690 nM
O=C(N/C(=C\c1ccc(/C=C(\NC(=O)c2ccccc2)c2nc3cc([N+](=O)[O-])ccc3[nH]2)cc1)c1nc2cc([N+](=O)[O-])ccc2[nH]1)c1ccccc1,> 100,–
CC1=C(C(=O)NCc2ccccc2)C(/C=C/c2ccccc2)C(C(=O)NCc2ccccc2)=C(C)N1,> 100,–
CC1(c2ccc(F)cc2)C(C#N)C(=O)NC(=O)C1C#N (configuration not stated),> 100,–
O=C1C2C(C(=O)N1OS(=O)(=O)c1ccccc1)N(Cc1ccccc1)C(=O)N2Cc1ccccc1 (configuration not stated),> 100,–
Cc1cc(C)nc(NS(=O)(=O)c2ccc(NC(=O)c3ccc(Cl)c4c(Nc5ccc(S(=O)(=O)Nc6nc(C)cc(C)n6)cc5)c5ccccc5nc34)cc2)n1,> 100,–
COc1ccc2c3c1C(=O)CCCC3CO2 (configuration not stated),> 100,–
N#CC(c1ccc(Cl)cc1)c1cccc(C(C#N)c2ccc(Cl)cc2)n1 (configuration not stated),> 100,–
CCCCCN(CCCCC)CCCNc1c2c(nc3ccc(Cl)cc13)CCCC2,11.6,3480 nM
O=C1/C(=C/c2ccccc2)CN(C(=O)C(Cl)(Cl)Cl)C/C1=C\c1ccccc1,4.62,–
Cn1c2ccccc2c2c(Nc3ccccc3)c3ccccc3nc21,65.5,23000 nM
O=S1(=O)c2ccccc2NC(c2ccc3ccccc3c2)CC1c1ccccc1F (configuration not stated),> 100,–

# Tested on: KM12 colon
# Assay: growth of human tumour cells (NCI), 48 h
Compound,TGI [µM],GI50 [µM]
CCN(CCO)CC1CCCC2CCCCC21 (configuration not stated),> 100,–
CC[C@@]1(O)C[C@H](OC2CC(N(C)C)C(O)C(C)O2)c2c(O)c3c(c(O)c2[C@H]1OC1CC(N(C)C)C(O)C(C)O1)C(=O)c1cccc(O)c1C3=O (some centres not stated),–,< 0.01
COC1(OC)CCC2C1C1CCC(OC)(OC)C21 (configuration not stated),> 50,–
NNC(=O)Nc1cccnc1,> 100,–
CC/C=C\CCC/C=C1/C(=O)C=C[C@@H]1C/C=C\CCCC(=O)OC,6.39,2.46
COc1ccc(-c2nc3sccn3c2/C(N)=N/C(=N)N)cc1OC,81.8,24.7
CCCCCCCCCCCOc1ccc(C(=O)C(=O)c2ccc(OCCCCCCCCCCC)c(OCCCCCCCCCCC)c2)cc1OCCCCCCCCCCC,> 100,–
Cn1cnc([N+](=O)[O-])c1Sc1nnc(-c2cccnc2)n1C,> 100,–
CCOC(=O)C1=C(C)NC(=S)NC1c1ccccc1 (configuration not stated),> 100,–
COC1=CC(=O)c2nc(-c3ccncc3)[nH]c2C1=O,> 100,> 100
O=C(/C=C/c1ccccc1)NC1C=Nc2ccc(Cl)cc2NC1=O (configuration not stated),56.8,–
COC1CCC2C(NS(=O)(=O)c3ccc(C)cc3)CCCC2O1 (configuration not stated) (tested in a mixture with another compound),> 34.5,–
CC(C)C/C(CC(=O)CCC(=O)Nc1ccccc1[N+](=O)[O-])=N\NC(=O)c1cc2ccccc2cc1O,> 100,–
O=C1/C(=C/c2cccc([N+](=O)[O-])c2)COc2ccc(O)cc21,3.32,1.68
O=C(O)c1ccccc1[Se][Se]c1ccccc1C(=O)O,89.1,–
COc1cc(CNc2cnc3cc(N)cc(N)c3n2)cc(OC)c1,71.8,22.5

Compound,TGI [µM],GI50 [µM]
CCCCC(=O)OCC(=O)[C@]1(O)Cc2c(O)c3c(c(O)c2[C@@H](OC2CC(NC(=O)C(F)(F)F)C(O)C(C)O2)C1)C(=O)c1c(OC)cccc1C3=O (some centres not stated),> 70.8,–
C[C@]12CC[C@H](O)CC1=CC[C@@H]1C2CC[C@]2(C)C(=O)N(N)C(=O)CC12 (some centres not stated),> 100,–
Clc1cc2nsnc2c(Cl)n1,> 100,–
COC(CN1C(=O)c2cccc3cccc(c23)C1=O)OC,> 100,–
CC(=O)NNc1nc(C)c(C(=O)NNC(=O)C(=O)Nc2ccc(Cl)cc2)s1,> 100,–
Cc1ccc(C(=O)/C(=C/c2ccc([N+](=O)[O-])cc2)SCc2ccc(Cl)cc2)cc1,5.73,1.91
CC1=C(C(=O)NCc2ccccc2)C(/C=C/c2ccccc2)C(C(=O)NCc2ccccc2)=C(C)N1,> 100,–
CC1(c2ccc(F)cc2)C(C#N)C(=O)NC(=O)C1C#N (configuration not stated),> 100,–
O=C1C2C(C(=O)N1OS(=O)(=O)c1ccccc1)N(Cc1ccccc1)C(=O)N2Cc1ccccc1 (configuration not stated),> 100,–
Cc1cc(C)nc(NS(=O)(=O)c2ccc(NC(=O)c3ccc(Cl)c4c(Nc5ccc(S(=O)(=O)Nc6nc(C)cc(C)n6)cc5)c5ccccc5nc34)cc2)n1,> 100,–
COc1ccc2c3c1C(=O)CCCC3CO2 (configuration not stated),> 100,–
N#CC(c1ccc(Cl)cc1)c1cccc(C(C#N)c2ccc(Cl)cc2)n1 (configuration not stated),> 100,–
CCCCCN(CCCCC)CCCNc1c2c(nc3ccc(Cl)cc13)CCCC2,10.3,3.13
O=C1/C(=C/c2ccccc2)CN(C(=O)C(Cl)(Cl)Cl)C/C1=C\c1ccccc1,3.4,–
O=S1(=O)c2ccccc2NC(c2ccc3ccccc3c2)CC1c1ccccc1F (configuration not stated),> 100,–
Cc1ccc(NC2=C(Cl)C(=O)N(Cc3ccccc3)C2=O)cc1O,> 100,41.4
